“Also recorded” adds a separate entry of the source. Where two headings read alike, the source gives them in different places. Blank lines part the entries; values can stand above or below the compound they belong to.
Assays:
[1] = Relaxation times (T1, T2) and relaxivities (R1, R2) at 1.5 T; format: physicochemical
Protocol: T1 measurements were carried out using an inversion recovery method with a variable inversion time (TI) at 1.5 T. The MR images were acquired at 35 different TI values ranging from 50 to 1750 ms. T1 relaxation times were obtained from the nonlinear least-squares fit of the signal intensity measured at each T1 value. For T2 measurements the CPMG (Carr-Purcell-Meiboon-Gill) pulse sequence was adapted for multiple spin-echo measurements. Thirty-four images were acquired with 34 different echo time (TE) values. T2 relaxation times were obtained from the nonlinear least-squares fit of the mean pixel values for the multiple spin-echo measurements at each echo time. Relaxivities were then calculated as an inverse (R=1/s·mM) of relaxation time per mM. The determined relaxation times and relaxivities are finally transformed to a phantom map. The phantom images were obtained with the same concentration of Dotarem® and gadolinium complexes or comparative purposes. […] Table 2 summarizes the relaxation times and relaxivities for gadolinium complexes of the present invention along with other Gd-complexes.

ICR mice = assay: In vivo MRI test; settings: 0.1 mmol of Gd/kg
Protocol: (§1) To study the contrasting effect of the MRI contrast agent according to the present invention, six-week-old male ICR mice (weight=29-31 g) were used for the in vivo study. The mice were anesthetized by 1.5% isoflurane in oxygen and treated with gadolinium complex (5c) of the present invention at amount of 0.1 mmol of Gd/kg. After the treatment, the mouse was revived from anesthesia and placed in the cage with free access to food and water. The animals were maintained at approximately 37° C. using a warm water blanket.
MR images were taken with 1.5 T (GE Healthcare, Milwaukee, Wis., USA) equipped with a homemade small animal RF coil. The coil was of the receiver type with its inner diameter being 50 mm. The imaging parameters for 3D fast SPGR (spoiled GRASS images) are as follows: repetition time (TR)=8.8 ms; echo time (TE)=3.9 ms; 10 mm field of view (FOV); 256×192 matrix size; 1.0 mm slice thickness; number of acquisition (NEX)=4. The imaging parameters for spin-echo are as follows: TR=500 ms; TE=13 ms; 6 mm FOV; 192×128 matrix size; 1.5 mm slice thickness; NEX=4. Each image was taken with an interval of 3 min and 16 s. […] For analysis of the obtained MR images, signal intensities in specific regions of interest (ROI) were measured using Advantage Window software (GE Medical, USA). The CNR was calculated using Equation 3, where SNR is the signal-to-noise ratio. […]

[2] = ICP measurement of Gd(III) ion concentration in organs with time; format: in vivo, mice; design: unit not given here
Protocol: as §1
The excretion via the bile duct was further confirmed by measuring the concentration of Gd(III) ions with time through inductively coupled plasma (ICP) measurement. At 6 h after the injection, the Gd(III) ions were detected in the intestine, confirming that they are excreted via the liver and the bile duct.

[3] = 20 MHz, 298 K; cited from earlier work
[4] = Transmetalation kinetics: evolution of paramagnetic relaxation rate R1P(t)/R1P(0) in presence of ZnCl2; format: physicochemical
Description: […]. The relative value of R1^P at time t, R1^P(t)/R1^P(0), is therefore a good estimate of the extent of transmetalation. The evolution of R1^P(t)/R1^P(0) over time gives relevant information about the kinetics of the reaction, whereas the plateau value theoretically reached at t=∞ will reflect the thermodynamic aspect.
Accordingly, in order to investigate the transmetalation kinetics of the gadolinium complexes according to the present invention, the evolution of water proton relaxation rate (R1^P) of a phosphate-buffered solution (pH 7.4) containing 2.5 mmol/L of Gd-complex and 2.5 mmol/L of ZnCl2 with time was measured. To measure the change in the relaxation rate, 10 μL of a ZnCl2 solution (250 mmol/L) was added to 1 mL of a buffered solution of the Gd-complex and the mixture was vigorously stirred. The same experiment was performed with Dotarem®, Omniscan®, Multihance®, Primovist® and ethyl tranexamate (6) with zinc acetate for comparison. The measurement was made on a 3T whole body system (Magnetom Tim Trip; Simens, Germany) at room temperature.

[5] = reference values from ref. 8 or 9; cited from earlier work

Structure (SMILES): C=CCOC(=O)C1CCC(CNC(=O)CN2CCN(CC(=O)[O-])CCN(CC(=O)[O-])CCN(CC(=O)[O-])CC2)CC1.O.[Gd+3] (centres unmarked) [Compound 5c]
- R1 value compared with commercially available contrast agents (in words) ([1]; 1.5 T): significantly higher R1 values than any of the clinically used contrast agents; also recorded: very high R1 values
- R1 relaxivity ([1]; 1.5 T, mean value(±SD)): 9.5 ± 0.12 mM⁻¹ s⁻¹
- R2 relaxivity ([1]; 1.5 T, mean value(±SD)): 10.9 ± 0.03 mM⁻¹ s⁻¹
- T1 relaxation time ([1]; 1.5 T, mean value(±SD)): 105.28 ± 1.33 ms
- T2 relaxation time ([1]; 1.5 T, mean value(±SD)): 91.74 ± 0.25 ms
- R1 value relative to that of Dotarem ([1]; ratio of R1 values): 2.6 times
- excretion pattern (MR images) (ICR mice): excreted slowly to the intestine via the bile duct through hepatobiliary uptake
- MR contrasting effect in the liver (ICR mice; 1.5 T): enhances contrast of the liver
- concentration of Gd(III) ions (ICP) ([2]; Bile duct, 6 h after injection): 13.95
- concentration of Gd(III) ions (ICP) ([2]; Blood, 1 h after injection): 5.16
- concentration of Gd(III) ions (ICP) ([2]; Blood, 6 h after injection): 0.12
- concentration of Gd(III) ions (ICP) ([2]; Intestine, 6 h after injection): 2.485
- concentration of Gd(III) ions (ICP) ([2]; Kidney, 1 h after injection): 65.17
- concentration of Gd(III) ions (ICP) ([2]; Kidney, 6 h after injection): 68.22
- concentration of Gd(III) ions (ICP) ([2]; Kidney, 24 h after injection): 10.89
- concentration of Gd(III) ions (ICP) ([2]; Kidney, 48 h after injection): 6.91
- concentration of Gd(III) ions (ICP) ([2]; Liver, 1 h after injection): 62.09
- concentration of Gd(III) ions (ICP) ([2]; Liver, 6 h after injection): 50.90
- concentration of Gd(III) ions (ICP) ([2]; Liver, 24 h after injection): 33.73
- concentration of Gd(III) ions (ICP) ([2]; Liver, 48 h after injection): 35.90
- concentration of Gd(III) ions (ICP) ([2]; Liver, 72 h after injection): 6.22

Structure (SMILES): CNC[C@H](O)[C@@H](O)[C@H](O)[C@H](O)CO.CNC[C@H](O)[C@@H](O)[C@H](O)[C@H](O)CO.O=C([O-])CN(CCN(CC(=O)[O-])CC(=O)O)CCN(CC(=O)[O-])CC(=O)O.[Gd+3] [Magnevist, (N-Me-glucamine)2[Gd(DTPA)(H2O)]]
- magnetic relaxation rate [3]: about 4.7 mM^−1s^−1

- paramagnetic relaxation rate retained, R1P(t)/R1P(0) (kinetic stability) ([4]; 72 hours, phosphate-buffered solution pH 7.4, 2.5 mmol/L Gd-complex and 2.5 mmol/L ZnCl2, room temperature, 3T): 30%
- pattern of evolution of the paramagnetic relaxation rate R1P(t)/R1P(0) (in words) ([4]; phosphate-buffered solution pH 7.4, 2.5 mmol/L Gd-complex and 2.5 mmol/L ZnCl2, 72 hours): drastic decrease in the rate
Structure (SMILES): CNC(=O)CN(CCN(CCN(CC(=O)[O-])CC(=O)NC)CC(=O)[O-])CC(=O)[O-].[Gd+3] [Omniscan, [Gd(DTPA-bismethylamide)(H2O)]]
- R1 relaxivity [5]: 4.9 ± 0.14 mM⁻¹ s⁻¹
- R2 relaxivity [5]: 3.4 ± 0.25 mM⁻¹ s⁻¹
- T1 relaxation time [5]: 209.8 ± 5.82 ms
- T2 relaxation time [5]: 290.9 ± 21.02 ms
- magnetic relaxation rate [3]: about 4.4 mM^−1s^−1

Reference: patent US8901294B2, “MRI contrast agent having gadolinium complex” (priority 2010, dated 2014)
